Literature values as cited in patent US12482537B2, “System of predicting sensitivity of Klebsiella against MeropeneM and method” (priority 2023, dated 2025).

Test system: carbapenem resistant Klebsiella pneumoniae
Details: isolates from 2014 to 2017 (252/403)

In the case of `C[C@@H](O)[C@H]1C(=O)N2C(C(=O)O)=C(S[C@@H]3CN[C@H](C(=O)N(C)C)C3)[C@H](C)[C@H]12` [Meropenem], the “resistance rate against meropenem” value is given as 62.5%.
